Results on seven compounds are retold here after patent US20060247251A1, “2-Cyanopyrrolopyrimidines and pharmaceutical uses thereof” (priority 2003, published 2006).

SMILES strings stand for the structures.

Sequence of recombinant human cathepsin S (P25774 115-331): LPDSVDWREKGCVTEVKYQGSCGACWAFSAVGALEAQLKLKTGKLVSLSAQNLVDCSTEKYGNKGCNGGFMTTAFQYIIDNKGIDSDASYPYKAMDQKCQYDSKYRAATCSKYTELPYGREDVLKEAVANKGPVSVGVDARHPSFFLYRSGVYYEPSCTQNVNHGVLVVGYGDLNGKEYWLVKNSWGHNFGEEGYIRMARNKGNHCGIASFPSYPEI

The experiment concerns the target recombinant human cathepsin S (Homo sapiens, UniProt P25774). The experiment can be described thus: in vitro cathepsin S assay. The experiment is classed as biochemical. Particulars: substrate Z-Leu-Leu-4-methylcoumaryl-7-amide, pH 7.0, ambient temperature, read-out: IC50 for the inhibition of human cathepsin S. On the procedure: The in vitro assay is carried out in clear, flat-bottomed, 96-well microtiter plates (Greiner GmbH, Germany) at ambient temperature using recombinant human cathepsin S. Inhibition of human cathepsin S is assayed at a constant enzyme and various substrate concentrations (substrate is Z-Leu-Leu-4-methylcoumaryl-7-amide (Bachem (Switzerland)) in 100 parts 0.2M sodium phosphate, pH 7.0, containing 2 mM EDTA, 2 parts 1% Triton X-100, 10 parts 20 mM dithlothreitol (DTT) and 58 parts distilled water. The assay is started by adding the enzyme solution (13 times higher concentration of final concentration of recombinant human Cathepsin S) to the reaction mixture containing various concentrations of the corresponding substrate and the compound. Substrate concentrations between 3.4 and 17 μM are used. The recombinant human Cathepsin S is used at a final concentration of 0.04 nM. Test compounds are used at concentrations between 0.4 and 2 times the determined IC50 of the compound at the enzyme. The relative fluorescence is continuously measured for 30 minutes and the initial velocity is obtained from each progress curve. […]
The term IC50 denotes the midpoint of a concentration-inhibition curve. As to `CCCNC(=O)c1ccc(OCc2cc3cnc(C#N)nc3n2CCC2CCCCC2)c(Cl)c1` [Example 54], the IC50 turned out to be 32 nM.

As to `N#Cc1ncc2cc(Cc3ccc(F)c(F)c3)n(CCc3ccc(Cl)cc3)c2n1` [Example 169], the IC50 was determined as 30 nM.

`CC(C)(C)CCn1c(Cc2ccc(CO)cc2)cc2cnc(C#N)nc21` [Example 175]: the IC50 is 5.1 nM.

Consider `N#Cc1ncc2cc(Cc3ccc(N4CCCC4=O)cc3)n(CCC3CCCCC3)c2n1` [Example 179, 7-(2-Cyclohexyl-ethyl)-6-[4-(2-oxo-pyrrolidin-1-yl)-benzyl]-7H-pyrrolo[2,3-d]pyrimidine-2-carbonitrile], for which the IC50 came to 35 nM.

Regarding `CC(C)CCn1c(Cc2cccs2)cc2cnc(C#N)nc21` [Example 193], the IC50 came to 4.1 nM.

For `N#Cc1ncc2cc(CN3CCCC3)n(CCC3CCCCC3)c2n1` [Example 278], the IC50 came to 33 nM.

For `CC(=O)N1CCC2(CCN(Cc3cc4cnc(C#N)nc4n3CCC3CCCCC3)CC2)C1` [Example 335, 6-(2-Acetyl-2,8-diaza-spiro[4,5]dec-8-ylmethyl)-7-(2-cyclohexyl-ethyl)-7H-pyrrolo[2,3-d]pyrimidine-2-carbonitrile], the IC50 was 48 nM.
